Assay results published in patent US20240360114A1 (SIRONAX LTD., priority 2021, published 2024).

System: HT-1080 cells
Experiment: HT-1080 cell viability assay (ferroptosis induced by RSL3, Cell Titer-Glo)
Format: cell-based
Settings: Homo sapiens, HT-1080, 20 h, ferroptosis inducer RSL3, 20 hours, ferroptosis inhibitory activity, Table 2
Procedure: Example 2. Determination of EC50 Values in HT-1080 Cell Viability Assay
HT-1080 (ATCC, CCL-121) cells (6000 in 100 μl) were seeded in 96-well plates (Corning) and cultured in a 37° C. incubator with a humidified atmosphere of 5% CO2 for overnight. Cells were then treated with ferroptosis inducer RSL3 (TargetMol) and a 3-fold, 10-point serial dilution series of compounds with 1.1 μM as the highest concentration, for 20 hours. Cell viability was assessed using the Cell Titer-Glo Kit (Promega). The luminescence intensity was measured with a microplate reader (Envision, PerkinElmer), and cell viability was calculated by normalizing the data to untreated controls. The EC50 values of the compounds (e.g., Compounds 1-573 and 574-661) were calculated in GraphPad Prism (GraphPad Software, Inc., San Diego, CA, USA). The curves were fitted using a non-linear regression model with a sigmoidal dose response.

Row | SMILES | EC50
1 | CCCC1CCN(c2ncc(NC3CCC(N)CC3)cn2)CC1 (stereo not drawn) [Compound 29, N1-(2-(4-propylpiperidin-1-yl)pyrimidin-5-yl)cyclohexane-1,4-diamine] | 0.1 to 100 nM
2 | CCCCC1CCN(c2ccc(NC3CCC(CN)CC3)c(C)n2)CC1 (stereo not drawn) [Compound 30, N-(4-(aminomethyl)cyclohexyl)-6-(4-butylpiperidin-1-yl)-2-methylpyridin-3-amine] | 0.1 to 100 nM
3 | Cc1nc(N2CCC(C(C)C)CC2)ccc1NC1CCC(CN)CC1 (stereo not drawn) [Compound 31, N-(4-(aminomethyl)cyclohexyl)-6-(4-isopropylpiperidin-1-yl)-2-methylpyridin-3-amine] | 0.1 to 100 nM
4 | Cc1nc(N2CCC(C)(C)CC2)ccc1NC1CCC(CN)CC1 (stereo not drawn) [Compound 32A, N-(4-(aminomethyl)cyclohexyl)-6-(4,4-dimethylpiperidin-1-yl)-2-methylpyridin-3-amine] | 0.1 to 100 nM
5 | CC1(C)CN(c2ncc(NC3CCC(N)CC3)cn2)C1 (stereo not drawn) [Compound 33A, N1-(2-(3,3-dimethylazetidin-1-yl)pyrimidin-5-yl)cyclohexane-1,4-diamine] | 1000 to 10000 nM
6 | CC(C)C1CCN(c2ncc(NC3CCC(N)CC3)cn2)CC1 (stereo not drawn) [Compound 34A, N1-(2-(4-isopropylpiperidin-1-yl)pyrimidin-5-yl)cyclohexane-1,4-diamine] | 0.1 to 100 nM
7 | CC(C)C1CCN(c2ncc(NC3CCNCC3)cn2)CC1 [Compound 35, 2-(4-isopropylpiperidin-1-yl)-N-(piperidin-4-yl)pyrimidin-5-amine] | 0.1 to 100 nM
8 | CC(C)C1CCN(c2ncc(NC3CCNC3)cn2)CC1 (stereo not drawn) [Compound 36, 2-(4-isopropylpiperidin-1-yl)-N-(pyrrolidin-3-yl)pyrimidin-5-amine] | 0.1 to 100 nM
9 | NC1CCC(Nc2ccc(-n3cccn3)cc2)CC1 (stereo not drawn) [Compound 37A, N1-(4-(1H-pyrazol-1-yl)phenyl)cyclohexane-1,4-diamine] | 1000 to 10000 nM
10 | CC(C)C1CCN(c2ncc(NC3CCC(N)C3)cn2)CC1 (stereo not drawn) [Compound 38, N1-(2-(4-isopropylpiperidin-1-yl)pyrimidin-5-yl)cyclopentane-1,3-diamine] | 0.1 to 100 nM
11 | COCCCCOc1cc(NC2CCC(N)CC2)ccc1N1CCC(C(F)(F)F)CC1 (stereo not drawn) [Compound 39, N1-(3-(4-methoxybutoxy)-4-(4-(trifluoromethyl)piperidin-1-yl)phenyl)cyclohexane-1,4-diamine] | 0.1 to 100 nM
12 | NC1CCC(Nc2ccc(N3CCC(C(F)(F)F)CC3)cc2)CC1 (stereo not drawn) [Compound 40, N1-(4-(4-(trifluoromethyl)piperidin-1-yl)phenyl)cyclohexane-1,4-diamine] | 0.1 to 100 nM
13 | NCCOc1cc(NC2CCC(N)CC2)ccc1N1CCC(C(F)(F)F)CC1 (stereo not drawn) [Compound 41A, N1-(3-(2-aminoethoxy)-4-(4-(trifluoromethyl)piperidin-1-yl)phenyl)cyclohexane-1,4-diamine] | 100 to 1000 nM
14 | NC1CCC(Nc2cnc(N3CCC(C(F)(F)F)CC3)nc2)CC1 (stereo not drawn) [Compound 42, N1-(2-(4-(trifluoromethyl)piperidin-1-yl)pyrimidin-5-yl)cyclohexane-1,4-diamine] | 0.1 to 100 nM
15 | CCC1CCN(c2ncc(NC3CCC(N)CC3)cn2)CC1 (stereo not drawn) [Compound 43, N1-(2-(4-ethylpiperidin-1-yl)pyrimidin-5-yl)cyclohexane-1,4-diamine] | 0.1 to 100 nM
16 | CC1CCN(c2ncc(NC3CCC(N)CC3)cn2)CC1 (stereo not drawn) [Compound 44, N1-(2-(4-methylpiperidin-1-yl)pyrimidin-5-yl)cyclohexane-1,4-diamine] | 0.1 to 100 nM
17 | CC1(C)CCN(c2ncc(NC3CCC(N)CC3)cn2)CC1 (stereo not drawn) [Compound 45, N1-(2-(4,4-dimethylpiperidin-1-yl)pyrimidin-5-yl)cyclohexane-1,4-diamine] | 0.1 to 100 nM

Row | SMILES | EC50
18 | CCCC1CN(c2ncc(NC3CCC(N)CC3)cn2)C1 (stereo not drawn) [Compound 46, N1-(2-(3-propylazetidin-1-yl)pyrimidin-5-yl)cyclohexane-1,4-diamine] | 100 to 1000 nM
19 | NC1CCC(Nc2cnc(N3CC4(CCC4)C3)nc2)CC1 (stereo not drawn) [Compound 47, N1-(2-(2-azaspiro[3.3]heptan-2-yl)pyrimidin-5-yl)cyclohexane-1,4-diamine] | 100 to 1000 nM
20 | CC(C)C1CCN(c2ncc(NC3CCC(CN)C3)cn2)CC1 (stereo not drawn) [Compound 48, N-(3-(aminomethyl)cyclopentyl)-2-(4-isopropylpiperidin-1-yl)pyrimidin-5-amine] | 0.1 to 100 nM
21 | CC(C)C1CCN(c2ncc(NC3CC(CN)C3)cn2)CC1 (stereo not drawn) [Compound 49, N-(3-(aminomethyl)cyclobutyl)-2-(4-isopropylpiperidin-1-yl)pyrimidin-5-amine] | 0.1 to 100 nM
22 | CC(C)C1CCN(c2ncc(NC3CCC(C)(N)CC3)cn2)CC1 (stereo not drawn) [Compound 50, N1-(2-(4-isopropylpiperidin-1-yl)pyrimidin-5-yl)-4-methylcyclohexane-1,4-diamine] | 0.1 to 100 nM
23 | CC1(N)CCC(Nc2ccc(N3CCC(C(F)(F)F)CC3)cc2)CC1 (stereo not drawn) [Compound 51, 1-methyl-N4-(4-(4-(trifluoromethyl)piperidin-1-yl)phenyl)cyclohexane-1,4-diamine] | 0.1 to 100 nM
24 | NC1CCC(Nc2cnc(N3CCC(C(F)(F)F)CC3)cn2)CC1 (stereo not drawn) [Compound 52, N1-(5-(4-(trifluoromethyl)piperidin-1-yl)pyrazin-2-yl)cyclohexane-1,4-diamine] | 0.1 to 100 nM
25 | CC1CCN(c2ccc(NC3CCC(N)CC3)cc2C(F)(F)F)CC1 (stereo not drawn) [Compound 53A, N1-(4-(4-methylpiperidin-1-yl)-3-(trifluoromethyl)phenyl)cyclohexane-1,4-diamine] | 0.1 to 100 nM
26 | NC1CCC(Nc2cc(F)c(N3CCC(C(F)(F)F)CC3)c(F)c2)CC1 (stereo not drawn) [Compound 54A, N1-(3,5-difluoro-4-(4-(trifluoromethyl)piperidin-1-yl)phenyl)cyclohexane-1,4-diamine] | 0.1 to 100 nM
27 | CC1(C)CCN(c2ccc(NC3CCC(N)CC3)cc2C(F)(F)F)CC1 (stereo not drawn) [Compound 55, N1-(4-(4,4-dimethylpiperidin-1-yl)-3-(trifluoromethyl)phenyl)cyclohexane-1,4-diamine] | 0.1 to 100 nM
28 | Cc1cc(N2CCC(C(F)(F)F)CC2)c(Cl)cc1NC1CCC(N)CC1 (stereo not drawn) [Compound 56, N1-(5-chloro-2-methyl-4-(4-(trifluoromethyl)piperidin-1-yl)phenyl)cyclohexane-1,4-diamine] | 0.1 to 100 nM
29 | Cc1c(NC2CCC(N)CC2)ccc(N2CCC(C(F)(F)F)CC2)c1F (stereo not drawn) [Compound 57, N1-(3-fluoro-2-methyl-4-(4-(trifluoromethyl)piperidin-1-yl)phenyl)cyclohexane-1,4-diamine] | 0.1 to 100 nM
30 | Cc1cc(N2CCC(C(F)(F)F)CC2)c(F)cc1NC1CCC(N)CC1 (stereo not drawn) [Compound 58, N1-(5-fluoro-2-methyl-4-(4-(trifluoromethyl)piperidin-1-yl)phenyl)cyclohexane-1,4-diamine] | 0.1 to 100 nM
31 | Cc1cc(N2CCC(C(F)(F)F)CC2)c(C)cc1NC1CCC(N)CC1 (stereo not drawn) [Compound 59, N1-(2,5-dimethyl-4-(4-(trifluoromethyl)piperidin-1-yl)phenyl)cyclohexane-1,4-diamine] | 0.1 to 100 nM
32 | CC1CCN(c2ccc(NC3CCC(N)CC3)cc2)CC1 (stereo not drawn) [Compound 60, N1-(4-(4-methylpiperidin-1-yl)phenyl)cyclohexane-1,4-diamine] | 0.1 to 100 nM
33 | CCC1CCN(c2ccc(NC3CCC(N)CC3)cc2)CC1 (stereo not drawn) [Compound 61, N1-(4-(4-ethylpiperidin-1-yl)phenyl)cyclohexane-1,4-diamine] | 0.1 to 100 nM
